Reference: patent US20260262643A1, “HERBICIDAL BENZOXAZINES” (FMC CORPORATION, priority 2022, published 2026)

Key:
blackgrass [1] = test: Test A postemergence; type: in vivo, Alopecurus myosuroides; settings: 0 to 100 scale; for Plant response rating, Blackgrass: 1000 g ai/ha, Postemergence
Source text: (§1) Seeds of plant species selected from barnyardgrass (Echinochloa crusgalli), blackgrass (Alopecurus myosuroides), corn (Zea mays), foxtail, giant (giant foxtail, Setaria faberi), goosegrass (Eleusine indica), kochia (Bassia scoparia), oat, wild (wild oat, Avena fatua), pigweed, palmer (palmer amaranth, palmer pigweed, Amaranthus palmeri), Pigweed, Redroot (redroot pigweed, Amaranthus retroflexus), ragweed (common ragweed, Ambrosia artemisiifolia), ryegrass, Italian (italian ryegrass, Lolium multiflorum), soybean (Glycine max), and wheat (Triticum aestivum) were planted into a blend of loam soil and sand and treated preemergence with a directed soil spray using test chemicals formulated in a non-phytotoxic solvent mixture which included a surfactant. At the same time, plants selected from these crops and weed species and also galium (catchweed bedstraw, Galium aparine) and horseweed (Erigeron canadensis) were planted in pots containing the same blend of loam soil and sand and treated with postemergence applications of test chemicals formulated in the same manner. Plants ranged in height from 2 to 10 cm and were in the one- to two-leaf stage for the postemergence treatment. Treated plants and untreated controls were maintained in a greenhouse for 10 days, after which time all treated plants were compared to untreated controls and visually evaluated for injury. Plant response ratings, summarized in Table A, are based on a 0 to 100 scale where 0 is no effect and 100 is complete control. A dash (-) response means no test result.

goosegrass [2] = test: Test A postemergence; type: in vivo, Eleusine indica; settings: 0 to 100 scale; for Plant response rating, Goosegrass: 1000 g ai/ha, Postemergence
Source text: as §1

foxtail, giant [3] = test: Test A preemergence; type: in vivo, Setaria faberi
Source text: as §1

oat, wild [4] = test: Test A preemergence; type: in vivo, Avena fatua; settings: 125 g ai/ha, visual injury after 10 days, 0 to 100 scale, 0 is no effect, 100 is complete control
Source text: as §1

pigweed, palmer [5] = test: Test A preemergence; type: in vivo, Amaranthus palmeri
Source text: as §1

goosegrass [6] = test: Test A preemergence; type: in vivo, Eleusine indica
Source text: as §1

horseweed = test: Test A postemergence; type: in vivo, Erigeron canadensis; settings: 0 to 100 scale; for Plant response rating, Horseweed: 1000 g ai/ha, Postemergence
Source text: as §1

corn [7] = test: Test A preemergence; type: in vivo, Zea mays; settings: 125 g ai/ha, visual injury after 10 days, 0 to 100 scale, 0 is no effect, 100 is complete control
Source text: as §1

soybean [8] = test: Test A postemergence; type: in vivo, Glycine max; settings: 125 g ai/ha, postemergence, 10 days; 0 to 100 scale, 0 no effect, 100 complete control
Source text: as §1

wheat [9] = test: Test A preemergence; type: in vivo, Triticum aestivum; settings: 125 g ai/ha, visual injury after 10 days, 0 to 100 scale, 0 is no effect, 100 is complete control
Source text: as §1

soybean [10] = test: Test A preemergence; type: in vivo, Glycine max; settings: 125 g ai/ha, visual injury after 10 days, 0 to 100 scale, 0 is no effect, 100 is complete control
Source text: as §1

foxtail, giant [11] = test: Test A postemergence; type: in vivo, Setaria faberi; settings: 0 to 100 scale; for Plant response rating, Foxtail, Giant: 1000 g ai/ha, Postemergence
Source text: as §1

ryegrass, Italian [12] = test: Test A postemergence; type: in vivo, Lolium multiflorum; settings: 0 to 100 scale; for Plant response rating, Ryegrass, Italian: 1000 g ai/ha, Postemergence
Source text: as §1

blackgrass [13] = test: Test A preemergence; type: in vivo, Alopecurus myosuroides
Source text: as §1

kochia [14] = test: Test A preemergence; type: in vivo, Bassia scoparia
Source text: as §1

ragweed [15] = test: Test A postemergence; type: in vivo, Ambrosia artemisiifolia; settings: 0 to 100 scale; for Plant response rating, Ragweed: 1000 g ai/ha, Postemergence
Source text: as §1

ragweed [16] = test: Test A preemergence; type: in vivo, Ambrosia artemisiifolia
Source text: as §1

pigweed, palmer [17] = test: Test A postemergence; type: in vivo, Amaranthus palmeri; settings: 0 to 100 scale; for Plant response rating, Pigweed, Palmer: 1000 g ai/ha, Postemergence
Source text: as §1

kochia [18] = test: Test A postemergence; type: in vivo, Bassia scoparia; settings: 0 to 100 scale; for Plant response rating, Kochia: 1000 g ai/ha, Postemergence
Source text: as §1

oat, wild [19] = test: Test A postemergence; type: in vivo, Avena fatua; settings: 125 g ai/ha, postemergence, 10 days; 0 to 100 scale, 0 no effect, 100 complete control
Source text: as §1

corn [20] = test: Test A postemergence; type: in vivo, Zea mays; settings: 125 g ai/ha, postemergence, 10 days; 0 to 100 scale, 0 no effect, 100 complete control
Source text: as §1

ryegrass, Italian [21] = test: Test A preemergence; type: in vivo, Lolium multiflorum
Source text: as §1

wheat [22] = test: Test A postemergence; type: in vivo, Triticum aestivum; settings: 125 g ai/ha, postemergence, 10 days; 0 to 100 scale, 0 no effect, 100 complete control
Source text: as §1

galium = test: Test A postemergence; type: in vivo, Galium aparine; settings: 1000 g ai/ha, Postemergence; 0 to 100 scale
Source text: as §1

[23] = 125 g ai/ha, postemergence, 10 days, 0 no effect, 100 complete control
[24] = 125 g ai/ha, visual injury after 10 days, 0 to 100 scale, 0 is no effect, 100 is complete control
[25] = 1000 g ai/ha, 0 to 100 scale (0 no effect, 100 complete control), 10 days

SMILES: CCC(C)c1ncn(-c2cccc(C(=O)N3C[C@H](C)Oc4c(C)cccc43)c2)n1 (stereo partly shown) [Compound 87]
- Blackgrass plant response rating (blackgrass [1]; [23]): 10
- Goosegrass plant response rating (goosegrass [2]; [23]): 30
- Plant response rating, Foxtail, Giant (foxtail, giant [3]; [24]): 50
- Plant response rating, Oat, Wild (oat, wild [4]): 20
- Plant response rating, Pigweed, Palmer (pigweed, palmer [5]; [24]): 30
- Plant response rating, Goosegrass (goosegrass [6]; [24]): 80
- Horseweed plant response rating (horseweed; [23]): 0
- Plant response rating, Corn (corn [7]): 10
- Soybean plant response rating (soybean [8]): 40
- Plant response rating, Wheat (wheat [9]): 0
- Plant response rating, Soybean (soybean [10]): 0
- Foxtail, Giant plant response rating (foxtail, giant [11]; [23]): 10
- Ryegrass, Italian plant response rating (ryegrass, Italian [12]; [23]): 10
- Plant response rating, Blackgrass (blackgrass [13]; [24]): 40
- Plant response rating, Kochia (kochia [14]; [24]): 30
- Ragweed plant response rating (ragweed [15]; [23]): 50
- Plant response rating, Ragweed (ragweed [16]; [24]): 0
- Pigweed, Palmer plant response rating (pigweed, palmer [17]; [23]): 30
- Kochia plant response rating (kochia [18]; [23]): 70
- Oat, Wild plant response rating (oat, wild [19]): 20
- Corn plant response rating (corn [20]): 10
- Plant response rating, Ryegrass, Italian (ryegrass, Italian [21]; [24]): 100
- Wheat plant response rating (wheat [22]): 10

SMILES: Cc1nc(-c2cccc(C(=O)N3C[C@H](C)Oc4c(Cl)cccc43)c2)cs1 [Compound 125]
- Plant response rating, Blackgrass (blackgrass [1]): 20
- Plant response rating, Goosegrass (goosegrass [2]): 0
- Plant response rating, Foxtail, Giant (foxtail, giant [3]; [25]): 20
- Plant response rating, Pigweed, Palmer (pigweed, palmer [5]; [25]): 30
- Plant response rating, Goosegrass (goosegrass [6]; [25]): 20
- Plant response rating, Horseweed (horseweed): 0
- Plant response rating, Galium (galium): 40
- Plant response rating, Foxtail, Giant (foxtail, giant [11]): 20
- Plant response rating, Ryegrass, Italian (ryegrass, Italian [12]): 0
- Plant response rating, Blackgrass (blackgrass [13]; [25]): 0
- Plant response rating, Kochia (kochia [14]; [25]): 0
- Plant response rating, Ragweed (ragweed [15]): 0
- Plant response rating, Pigweed, Palmer (pigweed, palmer [17]): 40
- Plant response rating, Kochia (kochia [18]): 50
- Plant response rating, Ryegrass, Italian (ryegrass, Italian [21]; [25]): 60

SMILES: C[C@H]1CN(C(=O)c2cccc(-n3cncn3)c2)c2cc([N+](=O)[O-])ccc2O1 [Compound 49]
- Plant response rating, Blackgrass (blackgrass [1]): 0
- Plant response rating, Goosegrass (goosegrass [2]): 10
- Plant response rating, Foxtail, Giant (foxtail, giant [3]; [25]): 20
- Plant response rating, Pigweed, Palmer (pigweed, palmer [5]; [25]): 0
- Plant response rating, Goosegrass (goosegrass [6]; [25]): 30
- Plant response rating, Horseweed (horseweed): 0
- Plant response rating, Galium (galium): 30
- Plant response rating, Foxtail, Giant (foxtail, giant [11]): 10
- Plant response rating, Ryegrass, Italian (ryegrass, Italian [12]): 30
- Plant response rating, Blackgrass (blackgrass [13]; [25]): 0
- Plant response rating, Kochia (kochia [14]; [25]): 0
- Plant response rating, Ragweed (ragweed [15]): 30
- Plant response rating, Ragweed (ragweed [16]; [25]): 0
- Plant response rating, Pigweed, Palmer (pigweed, palmer [17]): 0
- Plant response rating, Kochia (kochia [18]): 10
- Plant response rating, Ryegrass, Italian (ryegrass, Italian [21]; [25]): 30

SMILES: Cc1nc(-c2cccc(C(=O)N3C[C@H](C)Oc4c(Cl)cccc43)c2)no1 [Compound 120]
- Plant response rating, Blackgrass (blackgrass [1]): 0
- Plant response rating, Goosegrass (goosegrass [2]): 10
- Plant response rating, Foxtail, Giant (foxtail, giant [3]; [25]): 20
- Plant response rating, Pigweed, Palmer (pigweed, palmer [5]; [25]): 0
- Plant response rating, Goosegrass (goosegrass [6]; [25]): 10
- Plant response rating, Horseweed (horseweed): 0
- Plant response rating, Galium (galium): 40
- Plant response rating, Foxtail, Giant (foxtail, giant [11]): 20
- Plant response rating, Ryegrass, Italian (ryegrass, Italian [12]): 0
- Plant response rating, Blackgrass (blackgrass [13]; [25]): 10
- Plant response rating, Kochia (kochia [14]; [25]): 0
- Plant response rating, Ragweed (ragweed [15]): 0
- Plant response rating, Ragweed (ragweed [16]; [25]): 0
- Plant response rating, Pigweed, Palmer (pigweed, palmer [17]): 40
- Plant response rating, Kochia (kochia [18]): 50
- Plant response rating, Ryegrass, Italian (ryegrass, Italian [21]; [25]): 10
